In article PMC4227698, “Poly(Ethylene Glycol) as a Scaffold for High-Affinity Open-Channel Blockers of the Mouse Nicotinic Acetylcholine Receptor” (PLoS ONE, 2014):
Like-named read-outs stand apart in the source and are kept apart here.

What was measured:
muscle-type AChR = conditions: cited from earlier work; for blocking rate constant k+B / unblocking rate constant k–B: ref Table S1 refs 1-12
[1] = target: T1, adult mouse muscle AChR (α, β, δ, ε) (Mus musculus, UniProt P02716+P04756+P09690+P20782, V433A); assay: Single-channel patch-clamp analysis of open-channel blockade of AChRs expressed in HEK-293 cells; type: cell-based; conditions: for effect on apparent mean open time (τapp): 100 µM ACh with 5, 10 or 20 µM PEG-QA; for unblocking rate constant k–B / blocking rate constant k+B: cell-attached; for unblocking rate constant k–B: average of unblocking rates at all tested concentrations; for blocking rate constant k+B: slope of linear fit of blocking rates
T1 construct: expressed in transfected cells; host or cells: HEK-293 cells (ATCC CRL-1573), transient calcium phosphate transfection, α:β:δ:ε = 2:1:1:1
Procedure: The cDNA clones of adult mouse muscle AChR subunits (α, β, δ, ε) in the vector pRBG4 were generously provided by Professor Anthony Auerbach (University at Buffalo, NY). […] Human embryonic kidney cells (HEK-293 cells, ATCC CRL-1573) were transiently transfected by calcium phosphate precipitation. In brief, HEK-293 cells were maintained in Dulbecco's […] (Invitrogen) supplemented with 10% Fetal Bovine Serum (Invitrogen) at 37°C and 5% CO2. Cells were plated 24 h before transfection to reach a confluence of 40–60%. A total of 3.5 µg DNA per 35-mm culture dish (α:β:δ:ε = 2∶1∶1∶1) was used. […] The medium was changed 24 h after the addition of DNA, and patch-clamp recordings were carried out 20–36 h thereafter.
Single-channel currents from AChRs were recorded using patch-clamp techniques in the cell-attached configuration. For dose-dependence measurements, a holding potential of +70 mV was applied. Kinetic analysis of single-channel currents was carried out using the QuB suite, [12]. The currents were idealized using the segmented k-means (SKM) hidden Markov algorithm at full bandwidth (10 kHz). Kinetic modeling of the idealized intervals was performed using the maximum interval likelihood (MIL) method, [12]. Additional details of recording and data analysis are provided in File S1.
MIL analysis on 2–4 cells was performed to determine the apparent mean open time (τapp), blocking rate, and unblocking rate for each measuring condition (reported as mean ± SEM). Uncertainties in the blocking rate constant (k+B values in Figure 2F) are reported as the standard errors in the least squares fits.
To test this hypothesis, we characterized the blockade kinetics of a series of PEG-QA conjugates (PQ1–PQ5; Figure 1) using patch-clamp electrophysiology. These conjugates were prepared from a short PEG, octa (ethylene glycol), through a three-step conversion (File S1). The chosen QA groups are small relative to the backbone length, and the hydrodynamic radii of these compounds are therefore expected to be similar. The kinetics and microscopic equilibrium affinity of channel blockade were determined by analyzing the acetylcholine (ACh)-elicited currents at the single-channel level. Channel activities were measured at 100 µM ACh in the absence or presence of 5, 10, or 20 µM of PEG-QA. […] The brief gaps within the clusters represent channel closing events.
Typical open-channel blockers follow a sequential blockade mechanism: the channel opens in response to ACh binding, and the blocker reversibly binds and dissociates from the transmembrane pore before the channel closes (Figure 1 and File S1). […] A new population of non-conducting blockade events, in addition to the brief closing and the long desensitized dwells, is also observed. These blockade events manifest themselves as a new component in the closed-time histogram. The relative area of the blockade component increases with increasing blocker concentration (reflecting the concentration-dependent rate of pore blockade), while the lifetime of this component (τB) is independent of blocker concentration (reflecting the unimolecular nature of blocker dissociation). These kinetic features allow the blocking and unblocking rate constants (k+B and k–B, respectively) to be determined by fitting of the dwell times under each set of conditions (File S1). […]
were amplified (Axopatch 200B, Axon Instruments, Foster City, CA), low-pass filtered at 10 kHz, and digitized at 20 kHz (NI 6040 E Data Acquisition Board, National Instruments, Austin, TX). Data were recorded directly to a desktop PC hard drive using the QuB software (www.qub.buffalo.edu).
1.3. Analysis of single-channel data (see also: Figure S1)
Kinetic analysis of single-channel currents was carried out using the QuB suite. The currents were idealized using the segmented k-means (SKM) hidden Markov algorithm at full bandwidth (10 kHz). Kinetic modeling of the idealized intervals […]

[2] = target: T1, adult mouse muscle AChR (α, β, δ, ε); assay: Agonist potency of PEG-QA alone, single-channel recording; type: cell-based; conditions: 10 µM in the pipette solution without other agonists, +70 mV
Source text: Various QA compounds, including the prototype PEG-QA (PQ0), have been previously reported as agonists for the muscle-type AChR [8], [19], [26]–[28]. […] The agonist potencies of PEG-QAs correlate roughly inversely with the size of their QA groups (except PQ4; Figure S4). […] The low agonist potencies of PQ3 and PQ5 may be attributable to their bulky QA groups, which may cause reduced affinities for the agonist-binding pocket and/or interfere with receptor conformational changes required for channel gating. Open-channel blockers with low agonist potencies may be favorable in some applications, since their pharmacological effects are simpler and more predictable.
Supplementary file pone.0112088.s004.tif: Figure S4 The agonist potencies of PQ1–5. (A) Representative traces of single-channel recordings in the presence of individual PEG-QA (10 µM in the pipette solution without other agonists). Pipette potential was held at +70 mV, and the currents are shown as upward deflections. (B) The effect of QA structure on the open probability of the AChR (defined as [drawing 1] , where N max is the maximal number of simultaneously open channels and Po,i is the fraction of time in which i channels open simultaneously). Data are plotted in log-scale in order to present the low NPo values of PQ3 and PQ5. (C) The effect of QA structure on the mean open time of the AChR. […]

[3] = previously reported open-channel blockers
[4] = previously reported open-channel blockers, ref Table S1 refs 1-14, read-out: Kd (= k–B/k+B)
[5] = 100 µM ACh, +70 mV, predominant blockade mode
[6] = predominant blockade mode, 100 µM ACh, +70 mV, read-out: Kd (= k–B/k+B) for the open AChR pore
[7] = 20 µM blocker, held at +50, +70, +100, +130 mV

T1 sequence (P04756 21-457 V433A): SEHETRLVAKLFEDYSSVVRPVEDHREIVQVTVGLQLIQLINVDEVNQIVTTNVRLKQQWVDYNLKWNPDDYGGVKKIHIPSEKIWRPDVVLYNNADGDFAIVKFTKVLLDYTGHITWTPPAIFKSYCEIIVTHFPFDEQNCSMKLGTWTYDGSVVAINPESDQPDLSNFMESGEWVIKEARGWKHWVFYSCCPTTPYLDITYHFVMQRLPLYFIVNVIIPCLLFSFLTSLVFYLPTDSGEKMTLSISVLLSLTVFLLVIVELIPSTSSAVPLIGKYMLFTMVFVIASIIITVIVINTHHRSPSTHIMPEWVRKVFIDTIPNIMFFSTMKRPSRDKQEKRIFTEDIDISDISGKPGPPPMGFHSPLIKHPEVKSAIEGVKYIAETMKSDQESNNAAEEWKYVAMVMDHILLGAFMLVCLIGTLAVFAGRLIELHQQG
T1 sequence (P09690 24-501): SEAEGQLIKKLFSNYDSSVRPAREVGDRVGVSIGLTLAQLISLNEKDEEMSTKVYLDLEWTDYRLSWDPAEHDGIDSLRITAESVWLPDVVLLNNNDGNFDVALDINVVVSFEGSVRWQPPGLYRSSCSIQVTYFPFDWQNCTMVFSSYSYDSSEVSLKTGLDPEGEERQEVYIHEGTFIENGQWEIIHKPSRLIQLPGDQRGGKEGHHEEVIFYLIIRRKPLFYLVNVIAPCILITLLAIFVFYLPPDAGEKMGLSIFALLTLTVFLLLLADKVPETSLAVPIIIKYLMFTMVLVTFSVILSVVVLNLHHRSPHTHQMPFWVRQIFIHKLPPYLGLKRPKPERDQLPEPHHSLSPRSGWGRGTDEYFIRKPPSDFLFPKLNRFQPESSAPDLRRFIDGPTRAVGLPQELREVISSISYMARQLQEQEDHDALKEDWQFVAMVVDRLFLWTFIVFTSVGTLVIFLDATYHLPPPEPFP
T1 sequence (P02716 25-520): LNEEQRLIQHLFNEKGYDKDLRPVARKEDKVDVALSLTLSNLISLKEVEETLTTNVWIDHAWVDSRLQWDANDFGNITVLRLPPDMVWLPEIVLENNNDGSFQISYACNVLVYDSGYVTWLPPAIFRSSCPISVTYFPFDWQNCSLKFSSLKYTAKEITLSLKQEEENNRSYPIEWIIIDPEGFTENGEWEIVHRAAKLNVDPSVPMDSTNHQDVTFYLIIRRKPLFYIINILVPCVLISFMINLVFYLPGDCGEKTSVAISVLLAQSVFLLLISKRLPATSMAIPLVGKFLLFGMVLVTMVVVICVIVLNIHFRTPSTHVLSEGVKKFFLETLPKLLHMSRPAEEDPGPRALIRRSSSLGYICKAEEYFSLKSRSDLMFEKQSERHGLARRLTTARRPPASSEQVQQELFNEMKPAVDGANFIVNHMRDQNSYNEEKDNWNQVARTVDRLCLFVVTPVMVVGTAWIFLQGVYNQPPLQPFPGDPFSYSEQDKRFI
T1 sequence (P20782 21-493): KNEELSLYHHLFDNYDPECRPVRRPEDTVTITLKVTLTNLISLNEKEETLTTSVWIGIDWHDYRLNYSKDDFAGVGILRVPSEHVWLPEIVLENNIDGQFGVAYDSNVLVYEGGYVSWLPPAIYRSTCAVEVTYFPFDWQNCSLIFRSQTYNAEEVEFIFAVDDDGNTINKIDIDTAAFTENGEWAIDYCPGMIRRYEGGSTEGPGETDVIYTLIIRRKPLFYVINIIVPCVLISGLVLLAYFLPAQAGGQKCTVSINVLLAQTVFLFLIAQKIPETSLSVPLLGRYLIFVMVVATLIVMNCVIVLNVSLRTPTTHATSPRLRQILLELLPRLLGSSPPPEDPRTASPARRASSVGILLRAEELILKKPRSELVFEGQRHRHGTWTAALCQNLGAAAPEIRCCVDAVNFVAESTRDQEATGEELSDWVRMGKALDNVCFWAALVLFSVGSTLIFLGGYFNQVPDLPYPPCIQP

| Compound | blocking rate constant k+B (muscle-type AChR; [3]) [M⁻¹ s⁻¹] | unblocking rate constant k–B (muscle-type AChR; [3]) | Kd (muscle-type AChR; [4]) [µM] | also measured |
| --- | --- | --- | --- | --- |
| COc1cc2c3cc1Oc1cc(ccc1O)C[C@@H]1c4c(cc(OC)c(O)c4Oc4ccc(cc4)C[C@@H]3N(C)CC2)CC[N+]1(C)C [(+)-tubocurarine] | 3e+06 | 0.8 s⁻¹ | 0.27 | – |
| Br.C[N+](C)(C)CCCCCNCC12CC3CC(CC(C3)C1)C2.[Br-] [IEM-1460] | 7.2e+07 | 858 s⁻¹ | 12 | – |
| C[C@]12N[C@H](Cc3ccccc31)c1ccccc12 [MK-801] | 2e+07 | 48 s⁻¹ | 2.4 | – |
| C[N+](C)(C)CCOCCOCCOCCOCCOCCOCCOCC[N+](C)(C)C [PQ0] | – | – | – | Kd (muscle-type AChR; prototype PEG-trimethylammonium blockers, read-out: Kd for the AChR pore): 9 ± 2 µM |
| C[N+]1(CCOCCOCCOCCOCCOCCOCCOCC[N+]2(C)CCCC2)CCCC1 [PQ1] | – | – | – | effect on apparent mean open time (τapp) ([1]; +70 mV): dose-dependent decrease; unblocking rate constant k–B [1, 5]: 64 ± 14 s⁻¹; blocking rate constant k+B [1, 5]: 2e+07 ± 4e+06 M⁻¹ s⁻¹; predominant blockade mode ([1]; faster- vs slower-dissociation mode): faster-dissociation mode; Kd [1, 6]: 3 ± 1 µM |
| C[N+]1(CCOCCOCCOCCOCCOCCOCCOCC[N+]2(C)CCCCC2)CCCCC1 [PQ2] | – | – | – | Kd [1]: 0.08 ± 0.09 µM; effect on apparent mean open time (τapp) ([1]; +70 mV): dose-dependent decrease; unblocking rate constant k–B [1, 5]: 2 ± 2 s⁻¹; blocking rate constant k+B [1, 5]: 2.9e+07 ± 7e+06 M⁻¹ s⁻¹ |
| CC[N+]1(CCOCCOCCOCCOCCOCCOCCOCC[N+]2(CC)CCCCC2)CCCCC1 [PQ3] | – | – | – | agonist potency (channel open probability and opening duration with compound alone) [2]: poor agonists; effect on apparent mean open time (τapp) ([1]; +70 mV): dose-dependent decrease; unblocking rate constant k–B [1, 5]: 4 ± 2 s⁻¹; blocking rate constant k+B [1, 5]: 2.2e+07 ± 6e+06 M⁻¹ s⁻¹; Kd [1, 6]: 0.17 ± 0.12 µM |
| CC[N+](CC)(CC)CCOCCOCCOCCOCCOCCOCCOCC[N+](CC)(CC)CC [PQ4] | – | – | – | effect on apparent mean open time (τapp) ([1]; +70 mV): dose-dependent decrease; unblocking rate constant k–B [1, 5]: 4 ± 3 s⁻¹; blocking rate constant k+B [1, 5]: 2.2e+07 M⁻¹ s⁻¹; Kd [1, 6]: 0.19 ± 0.15 µM |
| CCC[N+](C)(CCC)CCOCCOCCOCCOCCOCCOCCOCC[N+](C)(CCC)CCC [PQ5] | – | – | – | agonist potency (channel open probability and opening duration with compound alone) [2]: poor agonists; voltage dependence of k+B [1, 7]: increases with membrane hyperpolarization; voltage dependence of τapp [1, 7]: decreases with hyperpolarizing; effect on apparent mean open time (τapp) ([1]; +70 mV): dose-dependent decrease; unblocking rate constant k–B [1, 5]: 2 ± 1 s⁻¹; blocking rate constant k+B [1, 5]: 1.5e+07 ± 1e+06 M⁻¹ s⁻¹; Kd [1, 6]: 0.12 ± 0.09 µM |
| Cc1cccc(C)c1NC(=O)C[N+](C)(C)C [QX-222] | 2.1e+07 | ~ 600 s^−1 | ~30 | – |
| CC[N+](CC)(CC)CC(=O)Nc1c(C)cccc1C [QX-314] | 1.9e+07 | ~ 30 s^−1 | ~1 | – |
| CC(=O)OCC[N+](C)(C)C [acetylcholine] | 3.7e+07 | 56000 s⁻¹ | 1200 | – |
| CC(C)(C)NCC(O)c1ccc(O)c(CO)c1 (stereo not shown) [albuterol] | 4.3e+07 | 1042 s⁻¹ | 24 | – |
| C[N+](C)(C)CCO [choline] | – | – | 12500 | – |
| CNC1(c2ccccc2Cl)CCCCC1=O (stereo not shown) [ketamine] | 3e+06 | 100 s⁻¹ | 33 | – |
| Nc1nnc(-c2cccc(Cl)c2Cl)c(N)n1 [lamotrigine] | 6.2e+06 | 575 s⁻¹ | 93 | – |
| CNC(=O)Oc1ccc2c(c1)[C@]1(C)CCN(C)[C@@H]1N2C [physostigmine] | 2e+07 | 450 s⁻¹ | 23 | – |
| CCN(CC)CCOC(=O)c1ccc(N)cc1 [procaine] | 2e+06 | 200 s⁻¹ | 100 | – |
| CN1CCCN=C1/C=C/c1cccs1 [pyrantel] | 8e+07 | 667 s⁻¹ | 8 | – |
| CC[N+](CC)(CC)CC [tetraethylammonium] | – | – | – | Kd (muscle-type AChR; read-out: Kd (= k–B/k+B)): 2700 µM |
